Here are results for three compounds from ChEMBL document CHEMBL1201862, “PubChem BioAssay data set” (2004).

Test [1] concerns the target Platelet-derived growth factor receptor alpha (Homo sapiens, UniProt P16234). The test can be described thus: Navigating the Kinome. Panel member name: PDGFRA. The format is functional.
Test [2] concerns the target Fibroblast growth factor receptor 1 (Homo sapiens, UniProt P11362). The format is functional.
For test [3], the target named is Cyclin-dependent kinase 5 (Homo sapiens, UniProt Q00535). The format is functional.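 Also: CDK5 measured as one member of a kinase profiling panel.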
Test [4] has as its target Mitogen-activated protein kinase kinase kinase kinase 2 (Homo sapiens, UniProt Q12851). The format is functional.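 Also: measured as one member of a kinome-wide kinase panel, with MAP4K2 as the panel entry.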
Test [5] concerns the target Protein kinase C theta type (Homo sapiens, UniProt Q04759). The test can be described thus: Navigating the Kinome. Panel member name: PRKCQ. It is filed as functional.
Test [6] addresses Dual specificity protein kinase CLK2 (Homo sapiens, UniProt P49760). The format is functional.
Test [7] addresses T1, Sentrin-specific protease 8 (Homo sapiens, UniProt Q96LD8).
T1 sequence (Q96LD8 whole entry): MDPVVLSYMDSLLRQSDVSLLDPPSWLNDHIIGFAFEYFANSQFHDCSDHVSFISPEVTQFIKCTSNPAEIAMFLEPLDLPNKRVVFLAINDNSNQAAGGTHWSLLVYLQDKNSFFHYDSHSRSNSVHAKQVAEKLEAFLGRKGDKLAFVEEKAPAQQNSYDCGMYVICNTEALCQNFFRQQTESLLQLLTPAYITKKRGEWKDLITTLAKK
It is filed as functional.

For test [8], the target named is T1, Sentrin-specific protease 8. It is filed as functional. This is another data set of the same source.
Test [9] addresses T2, Sentrin-specific protease 6 (Homo sapiens, UniProt Q9GZR1).
T2 sequence (Q9GZR1 whole entry): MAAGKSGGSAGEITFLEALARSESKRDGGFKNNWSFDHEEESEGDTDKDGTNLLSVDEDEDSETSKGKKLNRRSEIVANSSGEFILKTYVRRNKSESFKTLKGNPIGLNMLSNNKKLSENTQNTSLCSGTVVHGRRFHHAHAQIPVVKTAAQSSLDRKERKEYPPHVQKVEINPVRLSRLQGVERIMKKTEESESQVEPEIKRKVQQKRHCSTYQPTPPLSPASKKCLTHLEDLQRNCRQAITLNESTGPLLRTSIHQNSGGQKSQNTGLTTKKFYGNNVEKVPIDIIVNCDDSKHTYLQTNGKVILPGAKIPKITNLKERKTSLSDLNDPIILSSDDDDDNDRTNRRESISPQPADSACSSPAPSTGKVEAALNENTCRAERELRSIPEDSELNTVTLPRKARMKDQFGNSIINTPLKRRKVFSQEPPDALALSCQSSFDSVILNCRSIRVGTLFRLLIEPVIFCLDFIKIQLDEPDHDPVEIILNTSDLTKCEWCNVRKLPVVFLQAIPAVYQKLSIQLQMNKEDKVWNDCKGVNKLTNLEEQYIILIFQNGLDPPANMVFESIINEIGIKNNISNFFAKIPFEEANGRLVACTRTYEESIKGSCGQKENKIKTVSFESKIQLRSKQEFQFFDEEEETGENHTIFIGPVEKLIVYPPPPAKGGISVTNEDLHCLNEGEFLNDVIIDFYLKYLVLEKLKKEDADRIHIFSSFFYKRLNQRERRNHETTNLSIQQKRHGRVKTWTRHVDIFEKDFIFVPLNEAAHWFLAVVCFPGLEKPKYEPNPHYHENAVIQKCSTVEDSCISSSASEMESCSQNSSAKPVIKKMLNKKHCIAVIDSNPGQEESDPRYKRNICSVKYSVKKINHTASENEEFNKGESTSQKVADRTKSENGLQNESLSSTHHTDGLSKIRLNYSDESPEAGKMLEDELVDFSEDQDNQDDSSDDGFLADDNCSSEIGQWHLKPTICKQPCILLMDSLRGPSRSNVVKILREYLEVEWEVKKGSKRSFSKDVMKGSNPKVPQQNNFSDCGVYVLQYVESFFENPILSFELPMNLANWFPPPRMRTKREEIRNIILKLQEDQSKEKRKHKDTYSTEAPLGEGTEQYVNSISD
It is filed as functional.

Test [10] deals with T3, Sentrin-specific protease 7 (Homo sapiens, UniProt Q9BQF6).
T3 sequence (Q9BQF6 whole entry): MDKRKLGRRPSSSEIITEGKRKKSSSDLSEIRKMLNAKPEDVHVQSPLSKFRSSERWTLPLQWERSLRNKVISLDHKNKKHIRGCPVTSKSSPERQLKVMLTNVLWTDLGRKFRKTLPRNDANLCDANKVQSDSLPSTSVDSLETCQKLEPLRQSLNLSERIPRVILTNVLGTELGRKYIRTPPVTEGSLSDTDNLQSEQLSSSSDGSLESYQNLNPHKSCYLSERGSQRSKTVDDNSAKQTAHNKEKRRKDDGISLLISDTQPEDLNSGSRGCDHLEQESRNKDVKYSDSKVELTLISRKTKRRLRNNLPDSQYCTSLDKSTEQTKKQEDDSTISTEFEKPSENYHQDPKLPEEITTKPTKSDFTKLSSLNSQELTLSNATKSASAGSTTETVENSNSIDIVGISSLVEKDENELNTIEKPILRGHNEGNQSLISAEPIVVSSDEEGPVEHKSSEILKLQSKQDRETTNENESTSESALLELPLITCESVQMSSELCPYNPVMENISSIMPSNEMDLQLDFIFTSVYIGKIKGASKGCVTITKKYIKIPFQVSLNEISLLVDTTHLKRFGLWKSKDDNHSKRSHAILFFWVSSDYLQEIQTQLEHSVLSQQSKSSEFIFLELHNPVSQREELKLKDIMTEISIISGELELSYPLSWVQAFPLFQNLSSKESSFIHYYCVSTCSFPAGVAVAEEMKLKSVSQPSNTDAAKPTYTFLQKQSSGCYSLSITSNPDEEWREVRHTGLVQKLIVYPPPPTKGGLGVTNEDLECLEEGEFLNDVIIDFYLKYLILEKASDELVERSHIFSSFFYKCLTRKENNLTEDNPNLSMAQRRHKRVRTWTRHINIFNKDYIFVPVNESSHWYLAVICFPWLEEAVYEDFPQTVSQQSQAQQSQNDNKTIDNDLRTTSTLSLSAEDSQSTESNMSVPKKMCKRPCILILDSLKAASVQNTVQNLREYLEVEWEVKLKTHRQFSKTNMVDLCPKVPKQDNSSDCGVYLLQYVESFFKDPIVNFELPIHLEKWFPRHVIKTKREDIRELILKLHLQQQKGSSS
The test is described as follows: SENP7 protease inhibitors, SAR follow-up, biochemical, luminescence (AID 504497). The format is functional.

The target in test [11] is Dual specificity protein phosphatase 3 (Homo sapiens, UniProt P51452). The test is described as follows: VHR1 phosphatase inhibitors, biochemical (AID 1878).

Active and inactive are the calls of the source. A value given as a limit tells only on which side of the number the result lay.

Dual specificity protein phosphatase 3, sequence (P51452 whole entry): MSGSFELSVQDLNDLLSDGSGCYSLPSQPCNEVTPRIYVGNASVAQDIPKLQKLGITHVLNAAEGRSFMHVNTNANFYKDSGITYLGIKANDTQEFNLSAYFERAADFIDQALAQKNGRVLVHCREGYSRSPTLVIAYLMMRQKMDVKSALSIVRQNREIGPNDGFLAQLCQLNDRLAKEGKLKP
Protein kinase C theta type, sequence (Q04759 whole entry): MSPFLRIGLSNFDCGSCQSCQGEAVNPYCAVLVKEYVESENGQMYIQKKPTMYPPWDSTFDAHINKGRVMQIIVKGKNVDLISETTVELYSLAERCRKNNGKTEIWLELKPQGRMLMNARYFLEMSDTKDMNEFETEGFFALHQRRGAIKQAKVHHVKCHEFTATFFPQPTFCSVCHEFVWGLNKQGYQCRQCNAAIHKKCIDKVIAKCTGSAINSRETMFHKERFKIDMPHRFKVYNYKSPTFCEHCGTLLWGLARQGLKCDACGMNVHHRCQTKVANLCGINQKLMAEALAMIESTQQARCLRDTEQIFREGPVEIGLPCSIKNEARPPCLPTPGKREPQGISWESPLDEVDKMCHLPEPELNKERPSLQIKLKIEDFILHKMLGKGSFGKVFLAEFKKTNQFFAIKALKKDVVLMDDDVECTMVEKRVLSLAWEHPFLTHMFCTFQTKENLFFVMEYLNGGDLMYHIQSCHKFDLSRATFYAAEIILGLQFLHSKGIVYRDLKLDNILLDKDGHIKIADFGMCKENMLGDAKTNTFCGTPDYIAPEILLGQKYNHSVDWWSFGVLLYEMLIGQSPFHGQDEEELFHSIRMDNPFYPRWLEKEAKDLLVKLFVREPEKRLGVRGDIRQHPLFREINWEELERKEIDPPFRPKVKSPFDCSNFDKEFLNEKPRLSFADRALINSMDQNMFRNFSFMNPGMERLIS
Dual specificity protein kinase CLK2, sequence (P49760 whole entry): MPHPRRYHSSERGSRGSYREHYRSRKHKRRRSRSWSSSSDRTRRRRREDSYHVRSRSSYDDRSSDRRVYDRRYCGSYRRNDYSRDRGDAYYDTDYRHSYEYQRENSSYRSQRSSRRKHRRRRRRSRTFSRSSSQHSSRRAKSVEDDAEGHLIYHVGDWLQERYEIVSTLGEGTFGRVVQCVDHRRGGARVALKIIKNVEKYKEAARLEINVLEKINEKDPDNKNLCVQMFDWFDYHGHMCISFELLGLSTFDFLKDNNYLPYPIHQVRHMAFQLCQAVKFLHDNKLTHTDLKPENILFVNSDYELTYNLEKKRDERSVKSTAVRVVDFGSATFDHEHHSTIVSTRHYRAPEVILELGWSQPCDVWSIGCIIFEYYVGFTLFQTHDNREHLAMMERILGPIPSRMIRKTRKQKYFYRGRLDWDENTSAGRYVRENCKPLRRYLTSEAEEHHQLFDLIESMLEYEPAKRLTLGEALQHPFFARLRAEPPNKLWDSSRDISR
Fibroblast growth factor receptor 1, sequence (P11362 whole entry): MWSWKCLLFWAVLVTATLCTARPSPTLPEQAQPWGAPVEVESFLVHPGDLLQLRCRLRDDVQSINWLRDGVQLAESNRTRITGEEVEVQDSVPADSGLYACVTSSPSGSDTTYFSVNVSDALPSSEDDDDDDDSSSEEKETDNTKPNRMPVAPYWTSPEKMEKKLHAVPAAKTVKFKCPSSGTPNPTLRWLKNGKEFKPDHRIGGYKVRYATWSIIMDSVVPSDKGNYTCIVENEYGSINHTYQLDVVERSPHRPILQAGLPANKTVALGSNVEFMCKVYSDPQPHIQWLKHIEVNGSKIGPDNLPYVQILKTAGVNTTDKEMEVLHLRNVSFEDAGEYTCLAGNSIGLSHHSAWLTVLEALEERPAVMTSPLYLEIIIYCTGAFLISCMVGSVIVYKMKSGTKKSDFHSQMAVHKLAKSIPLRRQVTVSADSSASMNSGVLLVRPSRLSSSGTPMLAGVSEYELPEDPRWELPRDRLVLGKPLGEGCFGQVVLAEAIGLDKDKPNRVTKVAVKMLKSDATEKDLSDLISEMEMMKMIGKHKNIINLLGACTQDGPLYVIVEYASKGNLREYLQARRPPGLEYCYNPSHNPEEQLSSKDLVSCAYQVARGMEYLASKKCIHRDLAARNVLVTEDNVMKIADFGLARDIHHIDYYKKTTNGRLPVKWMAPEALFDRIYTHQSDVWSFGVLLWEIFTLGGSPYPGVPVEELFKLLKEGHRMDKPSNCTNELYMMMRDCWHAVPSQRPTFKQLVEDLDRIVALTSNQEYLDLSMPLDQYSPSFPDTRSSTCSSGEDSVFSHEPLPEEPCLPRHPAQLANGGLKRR
Mitogen-activated protein kinase kinase kinase kinase 2, sequence (Q12851 whole entry): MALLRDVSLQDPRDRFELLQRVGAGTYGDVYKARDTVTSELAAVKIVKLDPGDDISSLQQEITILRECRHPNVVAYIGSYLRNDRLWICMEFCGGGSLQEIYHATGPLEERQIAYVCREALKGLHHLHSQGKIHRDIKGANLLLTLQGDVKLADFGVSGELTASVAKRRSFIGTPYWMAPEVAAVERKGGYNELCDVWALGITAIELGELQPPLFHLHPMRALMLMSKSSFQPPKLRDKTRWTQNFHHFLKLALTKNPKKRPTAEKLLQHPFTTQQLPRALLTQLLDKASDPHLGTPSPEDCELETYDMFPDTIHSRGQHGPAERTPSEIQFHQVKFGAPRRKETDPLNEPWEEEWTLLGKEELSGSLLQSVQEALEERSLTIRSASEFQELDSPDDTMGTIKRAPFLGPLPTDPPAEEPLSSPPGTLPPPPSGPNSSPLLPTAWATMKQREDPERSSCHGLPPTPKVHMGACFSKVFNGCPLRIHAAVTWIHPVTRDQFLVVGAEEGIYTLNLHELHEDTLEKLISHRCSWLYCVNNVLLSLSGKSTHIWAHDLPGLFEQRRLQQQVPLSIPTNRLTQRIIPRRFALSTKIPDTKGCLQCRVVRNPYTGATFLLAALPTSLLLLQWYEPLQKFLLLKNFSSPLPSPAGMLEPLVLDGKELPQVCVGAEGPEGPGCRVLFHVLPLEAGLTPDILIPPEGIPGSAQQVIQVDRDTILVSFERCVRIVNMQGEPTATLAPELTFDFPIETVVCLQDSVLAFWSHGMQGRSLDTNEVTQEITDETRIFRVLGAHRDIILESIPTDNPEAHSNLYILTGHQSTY
Cyclin-dependent kinase 5, sequence (Q00535 whole entry): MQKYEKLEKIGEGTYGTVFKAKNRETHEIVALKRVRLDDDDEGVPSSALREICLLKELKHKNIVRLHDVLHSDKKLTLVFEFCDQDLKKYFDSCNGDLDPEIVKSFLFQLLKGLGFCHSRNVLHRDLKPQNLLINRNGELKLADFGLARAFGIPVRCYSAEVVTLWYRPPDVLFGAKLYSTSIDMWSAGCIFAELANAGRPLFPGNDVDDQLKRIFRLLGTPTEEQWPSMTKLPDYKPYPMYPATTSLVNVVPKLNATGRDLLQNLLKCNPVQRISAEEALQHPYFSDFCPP
Platelet-derived growth factor receptor alpha, sequence (P16234 whole entry): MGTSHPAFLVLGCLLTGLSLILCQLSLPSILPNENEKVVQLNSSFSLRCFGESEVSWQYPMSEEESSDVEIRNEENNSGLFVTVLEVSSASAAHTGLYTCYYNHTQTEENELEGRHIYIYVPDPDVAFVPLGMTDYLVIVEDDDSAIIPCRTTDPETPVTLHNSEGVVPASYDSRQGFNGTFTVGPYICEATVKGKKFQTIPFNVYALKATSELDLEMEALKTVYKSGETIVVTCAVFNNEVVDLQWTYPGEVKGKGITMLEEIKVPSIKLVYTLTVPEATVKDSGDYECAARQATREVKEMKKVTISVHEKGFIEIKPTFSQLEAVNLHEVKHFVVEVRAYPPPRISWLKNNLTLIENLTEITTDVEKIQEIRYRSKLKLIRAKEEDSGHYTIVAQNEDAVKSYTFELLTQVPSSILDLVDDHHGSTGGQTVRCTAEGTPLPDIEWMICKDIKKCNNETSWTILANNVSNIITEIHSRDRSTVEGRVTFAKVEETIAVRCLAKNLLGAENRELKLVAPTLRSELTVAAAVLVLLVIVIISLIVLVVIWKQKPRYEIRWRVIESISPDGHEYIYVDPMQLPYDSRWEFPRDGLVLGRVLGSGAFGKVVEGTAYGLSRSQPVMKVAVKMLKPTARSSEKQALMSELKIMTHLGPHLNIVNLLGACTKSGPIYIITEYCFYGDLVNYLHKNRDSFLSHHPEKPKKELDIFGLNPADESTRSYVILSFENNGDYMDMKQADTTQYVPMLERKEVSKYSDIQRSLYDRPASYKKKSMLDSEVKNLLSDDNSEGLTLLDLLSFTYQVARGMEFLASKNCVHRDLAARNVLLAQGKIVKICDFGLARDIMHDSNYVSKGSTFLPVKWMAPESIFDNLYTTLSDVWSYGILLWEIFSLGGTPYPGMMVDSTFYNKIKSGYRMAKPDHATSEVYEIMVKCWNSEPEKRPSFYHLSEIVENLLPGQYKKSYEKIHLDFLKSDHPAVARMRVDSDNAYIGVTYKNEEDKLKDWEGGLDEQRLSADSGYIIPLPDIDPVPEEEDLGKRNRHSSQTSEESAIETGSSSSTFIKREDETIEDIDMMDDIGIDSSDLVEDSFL

Consider `O=C(Cc1cccs1)Nc1nc2ccccc2s1`, for which the Ki in [1] was 1.58 µM (active); in [2] it was 0.631 µM (active); in test [3], 1.58 µM (active); in test [4] it was 2 µM (active); in test [5], 1.58 µM (active); in test [6] it was > 3.98 µM (inactive).

Consider `O=C(NNc1cc(N2CCCC2)nc(N2CCCC2)n1)c1ccc([N+](=O)[O-])cc1`, for which the IC50 is 2.12 µM (active) in test [7], 0.732 µM (active) in test [8], 1.81 µM (active) in [9] and 2.43 µM (active) in test [10].

`O=S(=O)(O)c1cccc2c(N=Nc3ccc(O)c4ncccc34)cccc12`: the IC50 in test [11] is 1.7 µM (active).

As usually defined, the Ki is a dissociation constant, usually derived from enzyme kinetics or from competition with a known ligand. For orientation: IC50 means the concentration needed to halve the response being measured.
